Laboratory results as given in article PMC2746553 (Biochemistry, 2009).
One block for each molecule: values may come before it.

Legend:
[1] = target: T1, 15-hLO-2 (human epithelial 15-lipoxygenase-2) (Homo sapiens, UniProt O15296); experiment: competitive substrate capture, solvent isotope effect and steady-state kinetics; type: biochemical
T1 sequence (O15296 1-676): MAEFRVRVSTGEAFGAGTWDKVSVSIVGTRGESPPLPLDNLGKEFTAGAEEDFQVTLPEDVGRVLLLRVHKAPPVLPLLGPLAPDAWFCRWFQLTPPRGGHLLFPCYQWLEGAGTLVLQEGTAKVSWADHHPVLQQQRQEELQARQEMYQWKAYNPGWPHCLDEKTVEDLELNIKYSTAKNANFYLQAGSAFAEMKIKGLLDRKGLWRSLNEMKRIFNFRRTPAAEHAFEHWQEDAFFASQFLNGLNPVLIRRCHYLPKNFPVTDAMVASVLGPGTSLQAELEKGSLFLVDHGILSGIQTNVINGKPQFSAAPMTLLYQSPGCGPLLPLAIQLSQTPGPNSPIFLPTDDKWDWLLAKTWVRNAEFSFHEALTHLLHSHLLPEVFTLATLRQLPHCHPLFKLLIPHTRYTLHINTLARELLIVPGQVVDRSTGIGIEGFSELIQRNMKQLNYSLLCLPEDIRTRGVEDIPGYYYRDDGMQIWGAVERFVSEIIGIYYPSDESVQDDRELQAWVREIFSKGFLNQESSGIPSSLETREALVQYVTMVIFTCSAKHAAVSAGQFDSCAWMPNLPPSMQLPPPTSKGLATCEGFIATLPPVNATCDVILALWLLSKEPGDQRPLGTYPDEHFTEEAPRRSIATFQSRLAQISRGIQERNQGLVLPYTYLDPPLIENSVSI

[2] = target: T1, 15-hLO-2 (human epithelial 15-lipoxygenase-2)
[3] = target: T1, 15-hLO-2 (human epithelial 15-lipoxygenase-2); experiment: competitive kinetic isotope effect and competitive substrate capture; type: biochemical
[4] = target: T1, 15-hLO-2 (human epithelial 15-lipoxygenase-2); experiment: steady-state inhibition kinetics with AA as substrate; type: biochemical

Kd [1]: ~0.005 µM
SMILES: CCCCC[C@H](O)/C=C/C=C\CCCCCCCC(=O)O [13-HODE, 13-(S)-hydroxyoctadecadienoic acid]

SMILES: CCCCC/C=C\C/C=C\C/C=C\C/C=C\CCCC(=O)O [AA, arachidonic acid]
steady-state kinetics (234 nm), kcat/KM at pH 7.5 [2]: 0.15 ± 0.02 μM^-1 s^-1

SMILES: CCCCC/C=C\C/C=C\CCCCCCCC(=O)O [LA, linoleic acid]
competitive kinetic isotope effect and competitive substrate capture (HPLC) [3]: 45 ± 3

SMILES: CCCCC/C=C\C/C=C\CCCCCCCC(=O)O [d31-LA]
Ki [4]: 17 ± 3 µM
